Results from US5869234A, “Method of identifying compounds which modulate herpesvirus infection” (President and Fellows of Harvard College, priority 1996, dated 1999).
Ends that are not written are not given here.

Tests used:
ICP4 = assay: In vitro phosphorylation of purified ICP4 without added kinase; format: biochemical, HSV-1; settings: 1 mM
Procedure: In vitro phosphorylation of purified ICP4 proteins with PKA or without added kinase. Approximately 20 ng of the ICP4 protein purified as described previously (Imbalzano, A. N., Shepard, A. A. and DeLuca, N. A., J. Virol., 64:2620-2631 (1990)) was added to a solution containing 10 mM Tris (pH 7.2), 10 mM MgCl2, 50 mM NaCl, 10 mM DTT and 20 μM (0.15 mCi) [γ-^32 P]ATP. The phosphorylation reaction was initiated by adding 60 U of protein kinase A type I catalytic subunit purified from bovine heart (Sigma Chem. Co., 1000 U/0.016 mg protein). Reaction mixtures were incubated at 30° C. for 30 min and stopped by addition of SDS-sample buffer. Equal portions of the reactions were analyzed by SDS-PAGE and transferred onto a nitrocellulose sheet for exposure to Kodak X-AR film and for staining with an ICP4-specific antibody. In some cases, the reaction mixtures were terminated by addition of 0.5 ml lysis buffer, and immunoprecipitation was conducted exactly as described above.
When an equivalent amount of d8-10 ICP4 protein was incubated, no labeled band was observed (Example 1; FIG. 5A, lane 3). The amount of phosphorylation in the absence of added enzyme was approximately one-tenth the level of phosphorylation in the presence of PKA. This phosphorylation in the absence of added enzyme may have resulted from an enzyme tightly bound to ICP4 or from an activity intrinsic to ICP4 itself. […]

[1] = target: T1, protein kinase A type I catalytic subunit (Bos taurus, UniProt P00517); assay: In vitro phosphorylation of a synthetic peptide by PKA; format: biochemical, bovine; settings: for Ratio**: ratio defined in footnote drawing 1
T1 construct: purchased Sigma Chem. Co; host or cells: bovine heart
Procedure: (§1) ii) In vitro phosphorylation of a synthetic peptide. A peptide containing a potential protein kinase A site in the serine-rich region of ICP4 (RRRRHGRWRPSASST, residues 165-179) (SEQ ID NO: 2 ) was synthesized on an Applied Biosystems model 430A automated peptide synthesizer and purified by HPLC. Amino acid analysis confirmed the authenticity of this peptide, termed ICP4tide. ICP4tide (100 μM), or Kemptide (LRRASLG, Sigma Inc.), a commercially available substrate for protein kinase A ([…]), was then incubated at 30° C. in a solution containing 24 mM MES (pH 7.0), […], 5.6 nM [^32 P]ATP (300-600 Ci/mmol). Each reaction was subsequently initiated by adding 80 U of protein kinase A type I catalytic subunit purified from bovine heart (Sigma Chem. Co., 1000U/0.016 mg protein) to a final volume of 52.5 μl. Following incubation for 4 minutes, 20 μl of the reaction was spotted onto P81 phosphocellulose strips, and phosphopeptides were quantitated after washing three times in […] of 75 mM phosphoric acid as previously described (Roskoski, R. Jr., Methods in Enzymology, 99:3-6 (1983)). For kinetic studies, the concentration of ICP4tide was varied as indicated. The ICP4tide was also phosphorylated in a manner similar to those described below for phosphorylation of purified ICP4 proteins with PKA except that synthetic peptide replaced the purified ICP4 and the ATP concentration was increased to 60 mM. Such phosphorylated peptides were resolved in a 27% SDS-polyacrylamide gel.
(§2) Accordingly, a peptide, named ICP4tide (RRRRHGRWRPSASST, residues 165-179) (SEQ ID NO: 2), corresponding to this potential site was synthesized and incubated in vitro with purified type I catalytic subunits of PKA and [γ-^32 P]ATP. Kemptide (LRRASLG) (SEQ ID NO: 5), a commercially available substrate for PKA, was used as a positive control.
(§3) To determine the Km values of these reactions, we incubated different concentrations of ICP4tide with [Y-^32 P]ATP and a fixed amount of PKA catalytic subunits (80 U each) for 4 min at 30° C. Varying amounts of ICP4tide were incubated with […] of PKA and 60 μM ATP, and the incorporation of ^32 P into ICP4tide was determined. From the Lineweaver-Burk representation of the data, the Km was determined as described (Michael, N., Spector, D., Mavromara-Nazos, P., Kristie, T. M. and Roizman, B., Science, 239:1531-1534 (1988)). […] Thus, the synthetic ICP4tide could be considered to be a good substrate for PKA in vitro.

viral DNA synthesis = settings: cited from earlier work
[2] = test system: CC(C)C[C@H](NC(=O)[C@H](CO)NC(=O)[C@H](C)NC(=O)[C@H](CCCNC(=N)N)NC(=O)[C@H](CCCNC(=N)N)NC(=O)[C@@H](N)CC(C)C)C(=O)NCC(=O)O; assay: In vitro phosphorylation of a synthetic peptide by PKA; format: biochemical, bovine; settings: other: Lineweaver-Burk, PKA catalytic subunits, 4 min at 30° C., 60 μM ATP, pH 7.0
Procedure: as §1, §2, §3

[3] = cited from earlier work

Row | Compound | Phosphorylation (cpm) ([1]; +PKA) | γ^32 P incorporated (%) ([1]; +PKA) | Ratio** ([1]; +PKA) | Phosphorylation (cpm) ([1]; -PKA) | γ^32 P incorporated (%) ([1]; -PKA) | effect on viral DNA synthesis (viral DNA synthesis) | other results
1 | [Mn+2] [Mn^+2] | – | – | – | – | – | – | effect on phosphorylation of ICP4 in the absence of added kinase (ICP4): inhibited
2 | RRRRHGRWRPSASST [ICP4tide] | 182104 | 6.2 | 26.2 | 6946 | 0.24 | – | Km ([1]; Lineweaver-Burk, PKA catalytic subunits, 4 min at 30° C., 60 μM ATP): 39 µM; phosphorylation by PKA, in words ([1]; compared with Kemptide): strongly phosphorylated
3 | LRRASLG [Kemptide, LRRASLG] | 768687 | 26.1 | 88.5 | 8682 | 0.3 | – | –
4 | Nc1nc2c(ncn2COCCO)c(=O)[nH]1 [acyclovir] | – | – | – | – | – | inhibits viral DNA synthesis | –
5 | protein kinase A type I catalytic subunit (Bos taurus) | – | – | – | – | – | – | Km [2]: 9 µM
6 | Nc1ncnc2c1ncn2[C@@H]1O[C@H](CO)[C@@H](O)[C@@H]1O [vidarabine] | – | – | – | – | – | inhibits viral DNA synthesis | properties in some experimental models [3]: teratogenic, mutagenic and carcinogenic properties
